Measured values from patent US20240226057A1, “NEW USE OF MONENSIN” (MAST PHARMA AB, priority 2021, published 2024).

Tests used:
MCs [1] = assay: Hexosaminidase release from MCs; type: cell-based
human blood monocytes = assay: Human peripheral blood-derived cells, viability: monocytes; type: cell-based
Description: (§1) Mononuclear cells and granulocytes were purified from heparinized human peripheral blood. Cells were stained with antibodies against CD4 (RPA-T4), CD8 (RPA-T8), CD19 (HIB19) and CD14 (M5E2) or CCR3 (5E8) and CD15 (W6D3) for analysis of mononuclear cells and granulocytes, respectively.
(§2) To assess cell death, cells were stained with Annexin V and either DRAQ7™ or Via-Probe™ Red Nucleic Acid Stain and analyzed by flow cytometry. To probe pH in acidic organelles, cells were incubated with LysoSensor Blue DND-167, followed by flow cytometry. The relative intracellular pH changes were assessed using the cell-permeable pH-sensitive fluorescent indicator (BCFL-AM). Intracellular calcium changes were assessed using Fluo-4/AM.
(§3) To extend these findings into the corresponding human leukocyte populations, the inventors assessed the effects of monensin on eosinophils (B), human blood monocytes (C), lymphocytes (D), and neutrophils (E).

MCs [2] = assay: Cell death in absence or presence of caspase inhibitor Z-DEVD; type: cell-based; settings: 1 or 10 μM monensin, with or without Z-DEVD
Description: MCs were treated with 1 or 10 μM monensin, either in the absence or presence of a caspase inhibitor: Z-DEVD. Flow cytometry was used to distinguish between viable (Annexin V^−/DRAQ7^−), apoptotic (Annexin V^+/DRAQ7^−) and necrotic (Annexin V^+/DRAQ7^+) cells. […] In line with the latter, the extent of cell death in response to monensin was not affected by the caspase inhibitor, Z-DEVD (FIG. 3).

[3] = tested on: immature human mast cell line HMC-1; assay: Cell death assessment in HMC-1 cells; type: cell-based; settings: lower potency than for BMMCs and PCMCs
Description: as §2
(§4) Next, the inventors assessed if monensin is cytotoxic for human mast cells by assessing its effect on immature human mast cell lines (LUVA, HMC-1) and on fully mature skin mast cells (hskinMC).

peritoneal macrophages = assay: Mouse peritoneal lavage cells, viability by flow cytometry: macrophages; type: cell-based; settings: 0-10 μM for 24 h
Description: Mouse peritoneal cells were treated with monensin and stained with labeled antibodies against CD117 (2B8), FcεRI (MAR-1), Siglec-F (E50-2440), CD11b (M1/70), F4/80 (BM8), CD3 (17A2), CD4 (GK1.5), CD8b (eBioH35-17.2) and CD19 (ebuo1D3).
as §2
To this end, monensin was added to cells recovered by peritoneal lavage of mice, followed by flow cytometry analysis to assess the effects of monensin on the various cell populations of the peritoneum.
Peritoneal cell populations were recovered by peritoneal lavage of mice. The gating strategy to identify viable cells and to identify macrophages, lymphocytes, MCs and eosinophils within the peritoneal cell population is shown in (A). […] The panels show quantification of viable (Annexin V^−/Via-Probe^−) cells; in the MC (B), lymphocyte (C), macrophage (D) and eosinophil (E) populations (n=3).

mast cells = settings: cited from earlier work
[4] = tested on: human primary airway epithelial cells (HSAEC); assay: Cytotoxicity against human primary airway epithelial cells (PrestoBlue); type: cell-based; settings: 0.01-10 μM for 48 h; much less than on mast cells
[5] = tested on: human skin mast cells (hskinMC); assay: Cell death assessment in human skin mast cells; type: cell-based
Description: as §2, §4

[6] = tested on: human fibroblast cells (HFL-1); assay: Cytotoxicity against human fibroblast cells (PrestoBlue); settings: 0.01-10 μM for 48 h; much less than on mast cells
human neutrophils = assay: Human peripheral blood-derived cells, viability: neutrophils; type: cell-based
Description: as §1, §2, §3

[7] = tested on: immature human mast cell line LUVA; assay: Cell death assessment in LUVA cells; type: cell-based; settings: lower potency than for BMMCs and PCMCs
Description: as §2, §4

[8] = tested on: human fibroblast cells (HFL-1)
BMMCs = assay: Granule acidity, LysoSensor Blue DND-167 staining of BMMCs; type: cell-based, mouse; settings: 0-10 μM for 30 min
Description: as §2
BMMCs were treated with 1 μM monensin for 12 and 24 h, followed by Annexin V/DRAQ7 staining to measure cell death. MCs were gated into cells having high and low maturity, as assessed by SSC analysis for granularity (A). The right panels depict the quantification of apoptotic (Annexin V^+/DRAQ7^−) and necrotic (Annexin V^+/DRAQ7^+) cell death in the respective populations (n=3). (B) BMMCs (0.5×10^6 cells) were developed from WT (FIG. 4B) or serglycin^−/− (SG^−/−) mice (data not shown) and were treated with monensin 0-10 μM for 24 h, followed by cell death assessment (Annexin V/DRAQ7 staining). […] To further assess the impact of the secretory granules on monensin-induced cell death, it was evaluated whether the absence of serglycin, a granule-restricted proteoglycan, affects the response to monensin. […]

Structure (SMILES): CC[C@]1([C@H]2O[C@H]([C@@H]3O[C@](O)(CO)[C@@H](C)C[C@H]3C)C[C@H]2C)CC[C@@H]([C@@]2(C)CC[C@@]3(C[C@@H](O)[C@H](C)[C@H]([C@H](C)[C@H](OC)[C@H](C)C(=O)O)O3)O2)O1 [Monensin, 4-[2-[5-ethyl-5-[5-[6-hydroxy-6-(hydroxymethyl)-3,5-dimethyl-oxan-2-yl]-3-methyl-oxolan-2-yl]oxolan-2-yl]-9-hydroxy-2,8-dimethyl-1,6-dioxaspiro[4.5]dec7-yl]-3-methoxy-2-methyl-pentanoic acid]
- Release of hexosaminidase (MCs [1]): did not cause
- Viability of human monocytes (human blood monocytes): no reduction
- Extent of cell death in presence of caspase inhibitor Z-DEVD (MCs [2]): not affected
- Cytotoxicity to HMC-1 cells [3]: cytotoxic
- Response of peritoneal macrophages (peritoneal macrophages): resistant
- Histamine release on longer incubation (mast cells; 5 hr incubation with mast cells): potent secretagogue
- Concentrations able to prevent histamine release from mast cells stimulated by secretagogues (mast cells; secretagogues such as calcium ionophore A23187): 0.6 to 150 µg/mL
- Concentration from which a cytotoxic effect was exhibited, HSAEC [4]: ≥ 1 µM
- Sensitivity of human skin mast cells ([5]; especially after longer incubation time): considerable sensitivity
- Type of cell death in human skin mast cells ([5]; sign of necrosis almost negligible): mainly apoptosis
- Concentration from which a cytotoxic effect was exhibited, HFL-1 [6]: ≥ 1 µM
- Response of human neutrophils (human neutrophils): only marginally affected
- Cytotoxicity to LUVA cells [7]: cytotoxic
- Cytotoxicity at 10 μM on HSFib (HFL-1) cells [8]: exhibited cytotoxicity
- LysoSensor Blue DND-167 staining / granule acidity, BMMCs (BMMCs): marked reduction
